Paper PMC8621456, “New Investigations with Lupane Type A-Ring Azepane Triterpenoids for Antimycobacterial Drug Candidate Design” (International Journal of Molecular Sciences, 2021)
In brackets after ≈: the same amount, converted by molar mass. Several values for one entry are separate records, joined by “and”; a condition that tells them apart may be missing. Identical values can stand only once. Like-named read-outs stand apart in the source and are kept apart here. Marks after values point to notes of the source that are not given here.

How the values were obtained:
M. tuberculosis H37Rv [1] = test: microbe, parasite or virus in culture; type: cell-based; settings: Mycobacterium tuberculosis, read-out: MIC (µM) H37Rv
[2] = system: M. abscessus (ATCC 19977); test: MIC determination against NTM strains, microbroth dilution; type: cell-based, Mycobacterium abscessus; settings: Mycobacteroides abscessus
M. avium (ATCC 25291) [3] = test: as above; type: cell-based; settings: Mycobacterium avium, ATCC25291; NTM strain
[4] = system: M. avium complex (ATCC 700,891 MAC 101); test: Ex vivo efficacy in infected THP-1 macrophages; type: cell-based; settings: Mycobacterium avium
[5] = system: M. abscessus (ATCC 19977); test: Ex vivo efficacy in infected THP-1 macrophages; type: cell-based, Mycobacterium abscessus; settings: Mycobacteroides abscessus
M. tuberculosis H37Rv [6] = test: Fractional inhibitory concentration (FIC), checkerboard with standard of care drugs; type: cell-based, Mycobacterium tuberculosis
M. tuberculosis H37Rv [7] = settings: compound 1 included as reference; ref [26],[27],[28]; cited from earlier work
H37Rv (katG^del) = settings: compound 1 included as reference; ref [26],[27],[28]; cited from earlier work
[8] = system: M. abscessus (ATCC 19977); settings: compound 1 included as reference; ref [26],[27],[28]; cited from earlier work
M. avium (ATCC 25291) [9] = settings: compound 1 included as reference; ref [26],[27],[28]; cited from earlier work
MTB H37Rv = settings: ref [26]; cited from earlier work
[10] = ATCC19977, NTM strain, read-out: MIC (µM) M. abscessus 19977
[11] = ATCC700, infected THP-1 macrophages, concentration for >90% inhibition, read-out: M. avium Ex Vivo Efficacy (>90% Inhibition µM)
[12] = ATCC19977, infected THP-1 macrophages, concentration for >90% inhibition, read-out: M. abscessus Ex Vivo Efficacy (>90% Inhibition µM)
[13] = ATCC19977, read-out: MIC (µM) M. abscessus 19977
[14] = ATCC700, THP-1, read-out: M. avium Ex Vivo Efficacy (>90% Inhibition µM)
[15] = ATCC19977, THP-1, read-out: M. abscessus Ex Vivo Efficacy (>90% Inhibition µM)

Row | Compound | MIC (M. tuberculosis H37Rv [1]) | MIC [2, 10] | MIC (M. avium (ATCC 25291) [3]) | also measured
1 | CC(=O)[C@@H]1CC[C@]2(COS(=O)(=O)c3ccc(C)cc3)CC[C@]3(C)[C@H](CC[C@@H]4[C@@]5(C)CCCNC(C)(C)[C@@H]5CC[C@]43C)[C@@H]12 [Compound 13] | 32 µM (≈ 19.1 µg/mL) | 16 µM (≈ 9.57 µg/mL) | 2 µM (≈ 1.2 µg/mL) | –
2 | NCC[C@H](O)C(=O)N[C@@H]1C[C@H](N)[C@@H](O[C@H]2O[C@H](CN)[C@@H](O)[C@H](O)[C@H]2O)[C@H](O)[C@H]1O[C@H]1O[C@H](CO)[C@@H](O)[C@H](N)[C@H]1O [Amikacin, reference compound] | – | 8 µM (≈ 4.68 µg/mL) | – | –
3 | C=C(CN=[N+]=[N-])[C@@H]1CC[C@]2(COC(C)=O)CC[C@]3(C)[C@H](CC[C@@H]4[C@@]5(C)CCCNC(C)(C)[C@@H]5CC[C@]43C)[C@@H]12 [Compound 15] | > 32 µM | > 64 µM | 64 µM (≈ 33.6 µg/mL) | –
4 | C=C(CBr)[C@@H]1CC[C@]2(COC(C)=O)CC[C@]3(C)[C@H](CC[C@@H]4[C@@]5(C)CCCNC(C)(C)[C@@H]5CC[C@]43C)[C@@H]12 [Compound 14] | > 32 µM | > 64 µM | 0.0625 µM (≈ 0.0352 µg/mL) | –
5 | C=C(C)[C@@H]1CC[C@]2(COC(C)=O)CC[C@]3(C)[C@H](CC[C@@H]4[C@@]5(C)CCCN(C(C)=O)C(C)(C)[C@@H]5CC[C@]43C)[C@@H]12 [Compound 11] | 8 µM (≈ 4.21 µg/mL) | 16 µM (≈ 8.41 µg/mL) | 4 µM (≈ 2.1 µg/mL) | –
6 | CC[C@H]1OC(=O)[C@H](C)[C@@H](O[C@H]2C[C@@](C)(OC)[C@@H](O)[C@H](C)O2)[C@H](C)[C@@H](O[C@@H]2O[C@H](C)C[C@H](N(C)C)[C@H]2O)[C@](C)(OC)C[C@@H](C)C(=O)[C@H](C)[C@@H](O)[C@]1(C)O [Clarithromycin, reference compound] | – | 4 µM (≈ 2.99 µg/mL) | 0.125 µM (≈ 0.0935 µg/mL) | IC90 [4, 11]: 8 µM; IC90 [5, 12]: 128 µM
7 | O=[N+]([O-])c1cn2c(n1)OC[C@@H](OCc1ccc(OC(F)(F)F)cc1)C2 [Pretomanid, reference compound] | 0.125 µM (≈ 0.0449 µg/mL) | – | – | –
8 | C=C(C)[C@@H]1CC[C@]2(COC(=O)c3cccnc3)CC[C@]3(C)[C@H](CC[C@@H]4[C@@]5(C)CCCNC(C)(C)[C@@H]5CC[C@]43C)[C@@H]12 [Compound 5] | 8 µM (≈ 4.37 µg/mL) | – | 1 µM (≈ 0.547 µg/mL) | MIC [2, 13]: 16 µM (≈ 8.75 µg/mL); IC90 [4, 14]: 32 µM; IC90 [5, 15]: > 128 µM
9 | CO[C@H]1/C=C/O[C@@]2(C)Oc3c(C)c(O)c4c(O)c(c(/C=N/N5CCN(C)CC5)c(O)c4c3C2=O)NC(=O)/C(C)=C\C=C\[C@H](C)[C@H](O)[C@@H](C)[C@@H](O)[C@@H](C)[C@H](OC(C)=O)[C@@H]1C [Rifampin, reference compound] | ≤ 0.004 µM | – | 0.0625 µM (≈ 0.0514 µg/mL) | –
10 | C=C(C)[C@@H]1CC[C@]2(C=NNC(=O)c3ccncc3)CC[C@]3(C)[C@H](CC[C@@H]4[C@@]5(C)CCCNC(C)(C)[C@@H]5CC[C@]43C)[C@@H]12 [Compound 7] | – | 8 µM (≈ 4.47 µg/mL) | 4 µM (≈ 2.24 µg/mL) | IC90 [4, 11]: 128 µM; IC90 [5, 12]: > 128 µM; FIC value with Rifampin (M. tuberculosis H37Rv [6]): 1.0 Additive; FIC value with Ethambutol (M. tuberculosis H37Rv [6]; combination with Ethambutol): 1.0; FIC value with Isoniazid (M. tuberculosis H37Rv [6]; combination with Isoniazid): 0.8
11 | C=C(C)[C@@H]1CC[C@]2(C)CC[C@]3(C)[C@H](CC[C@@H]4[C@@]5(C)CCCNC(C)(C)[C@@H]5CC[C@]43C)[C@@H]12 [Compound 2, azepano-lupeol] | ≤ 4 µM | ≤ 4 µM | 1 µM (≈ 0.426 µg/mL) | IC90 [4, 11]: > 128 µM; IC90 [5, 12]: > 128 µM
12 | C#CCNC(=O)[C@]12CC[C@@H](C(=C)C)[C@@H]1[C@H]1CC[C@@H]3[C@@]4(C)CCCNC(C)(C)[C@@H]4CC[C@@]3(C)[C@]1(C)CC2 [Compound 20, 17-(Propargyl)-3-deoxo-3a-homo-3a-aza-lup-20(29)-en-carboxamide] | ≤ 4 µM | 16 µM (≈ 7.88 µg/mL) | 4 µM (≈ 1.97 µg/mL) | –
13 | C=C(C)[C@@H]1CC[C@]2(CO)CC[C@]3(C)[C@H](CC[C@@H]4[C@@]5(C)CCCNC(C)(C)[C@@H]5CC[C@]43C)[C@@H]12 [Compound 1, azepanobetulin] | – | – | – | IC90 [4, 11]: 8 µM; IC90 [5, 12]: > 128 µM; MIC (µM) H37Rv (M. tuberculosis H37Rv [7]): 4 * µM; MIC (µM) H37Rv (katG^del) (H37Rv (katG^del)): 2 * µM; MIC (µM) M. abscessus 19977 [8]: 8 * µM; MIC (µM) M. avium 25291 (M. avium (ATCC 25291) [9]): 0.125 µM and 0.125 * µM
14 | C=C(C)[C@@H]1CC[C@]2(C(=O)NC(CO)Cc3ccccc3)CC[C@]3(C)[C@H](CC[C@@H]4[C@@]5(C)CCCNC(C)(C)[C@@H]5CC[C@]43C)[C@@H]12 (stereo partly drawn) [Compound 8] | 8 µM (≈ 4.71 µg/mL) | – | 4 µM (≈ 2.36 µg/mL) | MIC [2, 13]: 32 µM (≈ 18.8 µg/mL); IC90 [4, 14]: 16 µM; IC90 [5, 15]: > 128 µM
15 | C=C(C)[C@@H]1CC[C@]2(COS(=O)(=O)c3ccc(C)cc3)CC[C@]3(C)[C@H](CC[C@@H]4[C@@]5(C)CCCNC(C)(C)[C@@H]5CC[C@]43C)[C@@H]12 [Compound 6] | 8 µM (≈ 4.77 µg/mL) | – | 1 µM (≈ 0.596 µg/mL) | MIC [2, 13]: 8 µM (≈ 4.77 µg/mL)
16 | C=C(C)[C@@H]1CC[C@]2(COC(=O)c3ccccc3C(=O)O)CC[C@]3(C)[C@H](CC[C@@H]4[C@@]5(C)CCCNC(C)(C)[C@@H]5CC[C@]43C)[C@@H]12 [Compound 4] | 16 µM (≈ 9.44 µg/mL) | – | 4 µM (≈ 2.36 µg/mL) | MIC [2, 13]: 16 µM (≈ 9.44 µg/mL)
17 | C=C(C)[C@@H]1CC[C@]2(CN)CC[C@]3(C)[C@H](CC[C@@H]4[C@@]5(C)CCCNC(C)(C)[C@@H]5CC[C@]43C)[C@@H]12 [Compound 3] | 8 µM (≈ 3.53 µg/mL) | – | 2 µM (≈ 0.882 µg/mL) | MIC [2, 13]: 16 µM (≈ 7.05 µg/mL); IC90 [4, 14]: > 128 µM; IC90 [5, 15]: > 128 µM; FIC interpretation with Isoniazid (M. tuberculosis H37Rv [6]): 1.0 Additive (key: FIC VALUE ≤ 0.5 (Synergistic); 0.5–1.0 (Additive); 1.0–4.0 (Indifferent); > 4.0 (Antagonistic)); FIC interpretation with Rifampin (M. tuberculosis H37Rv [6]): 1.0 Additive (key: FIC VALUE ≤ 0.5 (Synergistic); 0.5–1.0 (Additive); 1.0–4.0 (Indifferent); > 4.0 (Antagonistic)); FIC value with Ethambutol (M. tuberculosis H37Rv [6]): 1.5 Indifferent; FIC value with Isoniazid (M. tuberculosis H37Rv [6]): 1.0 Additive; FIC value with Rifampin (M. tuberculosis H37Rv [6]): 1.0 Additive
18 | C=C(C)[C@@H]1CC[C@]2(C(=O)NC3CCCCC3)CC[C@]3(C)[C@H](CC[C@@H]4[C@@]5(C)CCCNC(C)(C)[C@@H]5CC[C@]43C)[C@@H]12 [Compound 10] | ≤ 4 µM | – | 2 µM (≈ 1.07 µg/mL) | MIC [2, 13]: 8 µM (≈ 4.3 µg/mL); IC90 [4, 14]: 64 µM; IC90 [5, 15]: > 128 µM
19 | C=C(C)[C@@H]1CC[C@]2(COC(C)=O)CC[C@]3(C)[C@H](CC[C@@H]4[C@@]5(C)CCCN(C(=O)c6cccnc6)C(C)(C)[C@@H]5CC[C@]43C)[C@@H]12 [Compound 12] | 32 µM (≈ 18.8 µg/mL) | 8 µM (≈ 4.71 µg/mL) | 4 µM (≈ 2.36 µg/mL) | –
20 | NNC(=O)c1ccncc1 [Isoniazid, reference compound] | 0.03 µM (≈ 0.00411 µg/mL) | – | – | –
21 | C=C(C)[C@@H]1CC[C@]2(C(=O)N3CCN(C)CC3)CC[C@]3(C)[C@H](CC[C@@H]4[C@@]5(C)CCCNC(C)(C)[C@@H]5CC[C@]43C)[C@@H]12 [Compound 9] | ≤ 4 µM | – | 4 µM (≈ 2.15 µg/mL) | MIC [2, 13]: ≤ 4 µM; IC90 [4, 14]: > 128 µM; IC90 [5, 15]: > 128 µM; FIC value with Ethambutol (M. tuberculosis H37Rv [6]): 2.5 Indifferent; FIC value with Rifampin (M. tuberculosis H37Rv [6]): 1.5 Indifferent
22 | CC(C)=C1CCC=C2CC[C@]3(C)[C@H](CC[C@@H]4[C@@]5(C)CCCNC(C)(C)[C@@H]5CC[C@]43C)[C@H]21 [Compound 18] | 16 µM (≈ 6.78 µg/mL) | 32 µM (≈ 13.6 µg/mL) | 4 µM (≈ 1.69 µg/mL) | IC90 [4, 11]: 128 µM; IC90 [5, 12]: > 128 µM
23 | COc1c(N2C[C@@H]3CCCN[C@@H]3C2)c(F)cc2c(=O)c(C(=O)O)cn(C3CC3)c12 [Moxifloxacin, reference compound] | 0.06 µM (≈ 0.0241 µg/mL) | – | – | –
24 | CC1(C)CCC23CCC4(C)C(CCC5C6(C)CCCNC(C)(C)C6CCC54C)C2C1OC3 (stereo not drawn) [Compound 17] | 16 µM (≈ 7.07 µg/mL) | 16 µM (≈ 7.07 µg/mL) | 0.5 µM (≈ 0.221 µg/mL) | IC90 [4, 11]: > 128 µM; IC90 [5, 12]: > 128 µM
25 | A-azepano-28-cinnamoyloxybetulin | – | – | – | MBC against MTB H37Rv (MTB H37Rv): 4 µM; MIC against MTB H37Rv (MTB H37Rv): 2 µM
